# Experimental data: ChEMBL document CHEMBL4431352, “Structure-activity relationship of Garcinia xanthones analogues: Potent Hsp90 inhibitors with cytotoxicity and antiangiogenesis activity” (Bioorg Med Chem, 2016)
# Active and inactive are the calls of the source. The calls are words filed in the database; no cut-off is given here.
# Tests used:
# [1] = biological target: T1, Heat shock protein HSP 90-alpha (Homo sapiens, UniProt P07900); assay: Inhibition of 6x-His tagged human recombinant full length Hsp90alpha ATPase preincubated for 0.5 hrs followed by ATP addition measured after 30 mins by HTRF assay
# [2] = test system: PC-3; assay: Antiproliferative activity against human PC3 cells assessed as growth inhibition by MTT assay; format: functional, cell-based
# [3] = test system: HT-29; assay: Antiproliferative activity against human HT-29 cells assessed as growth inhibition by MTT assay; format: functional, cell-based
# [4] = test system: MCF7; assay: Antiproliferative activity against human MCF7 cells assessed as growth inhibition by MTT assay; format: functional, cell-based
# [5] = test system: A549; assay: Antiproliferative activity against human A549 cells assessed as growth inhibition by MTT assay; format: functional, cell-based
# [6] = test system: HepG2; assay: Antiproliferative activity against human HepG2 cells assessed as growth inhibition by MTT assay; format: functional, cell-based
# [7] = test system: SK-BR-3; assay: Antiproliferative activity against human SK-BR-3 cells assessed as growth inhibition by MTT assay; format: functional, cell-based
# [8] = test system: SK-BR-3; assay: Induction of apoptosis in human SK-BR-3 cells assessed as live cells after 48 hrs by annexin v/PI-staining based flow cytometry (reference value: 89.2%); format: functional, cell-based
# [9] = biological target: T1, Heat shock protein HSP 90-alpha; assay: Binding affinity to human recombinant full length biotinylated Hsp90alpha assessed as equilibrium dissociation constants by biolayer interferometric analysis
# [10] = test system: SK-BR-3; assay: Induction of apoptosis in human SK-BR-3 cells assessed as late apoptotic cells at 0.5 uM after 48 hrs by annexin v/PI-staining based flow cytometry (reference value: 6.2%); format: functional
# [11] = biological target: T1, Heat shock protein HSP 90-alpha; assay: Binding affinity to human recombinant full length Hsp90alpha assessed as change in melting temperature at 250 uM by fluorescence assay
# [12] = test system: SK-BR-3; assay: Induction of apoptosis in human SK-BR-3 cells after 48 hrs by annexin V/PI-staining based flow cytometry; format: functional, cell-based
# [13] = test system: HUVEC; assay: Antiangiogenic activity against inactivated HUVEC assessed as inhibition of tube formation at 0.25 uM incubated for 6 hrs by matrigel assay; format: functional, cell-based; conditions: Homo sapiens
# [14] = test system: HUVEC; assay: Antiangiogenic activity against HUVEC assessed as inhibition of VEGF-induced cell migration incubated for 24 hrs by wound healing assay; format: functional, cell-based; conditions: Homo sapiens
# [15] = test system: SK-BR-3; assay: Induction of apoptosis in human SK-BR-3 cells assessed as live cells at 0.25 uM after 48 hrs by annexin v/PI-staining based flow cytometry (reference value: 89.2%); format: functional
# [16] = test system: SK-BR-3; assay: Induction of cell morphological changes in human SK-BR-3 cells assessed as cell membrane blebbing at 0.25 to 1 uM after 48 hrs by DAPI staining-based fluorescence analysis; format: functional
# [17] = test system: SK-BR-3; assay: Induction of apoptosis in human SK-BR-3 cells assessed as live cells at 1 uM after 48 hrs by annexin v/PI-staining based flow cytometry (reference value: 89.2%); format: functional
# [18] = test system: SK-BR-3; assay: Induction of apoptosis in human SK-BR-3 cells assessed as apoptotic body formation at 0.25 to 1 uM after 48 hrs by DAPI staining-based fluorescence analysis; format: functional, cell-based
# [19] = biological target: T2, Heat shock protein HSP90 (Homo sapiens) (UniProt P07900+P08238); assay: Inhibition of Hsp90 in human SK-BR-3 cells assessed as upregulation of Hsp70 at 0.02 to 0.2 uM after 24 hrs by Western blot analysis; format: cell-based
# [20] = test system: SK-BR-3; assay: Induction of apoptosis in human SK-BR-3 cells assessed as dead cells at 0.5 uM after 48 hrs by annexin v/PI-staining based flow cytometry (Rvb =1.3%); format: functional
# [21] = biological target: T2, Heat shock protein HSP90 (Homo sapiens); assay: Inhibition of Hsp90 in HUVEC assessed as downregulation of 1% hypoxia-induced HIF-1alpha expression measured over 8 hrs by Western blot analysis; format: cell-based
# [22] = test system: SK-BR-3; assay: Induction of apoptosis in human SK-BR-3 cells assessed as early apoptotic cells after 48 hrs by annexin v/PI-staining based flow cytometry (reference value: 3.3%); format: functional, cell-based
# [23] = biological target: T1, Heat shock protein HSP 90-alpha; assay: Binding affinity to human recombinant full length Hsp90alpha assessed as change in melting temperature at 500 uM by fluorescence assay
# [24] = test system: SK-BR-3; assay: Induction of apoptosis in human SK-BR-3 cells assessed as dead cells at 0.25 uM after 48 hrs by annexin v/PI-staining based flow cytometry (Rvb =1.3%); format: functional
# [25] = test system: SK-BR-3; assay: Induction of apoptosis in human SK-BR-3 cells assessed as increase in caspase activity after 48 hrs by fluorimetric assay; format: functional, cell-based
# [26] = test system: SK-BR-3; assay: Induction of apoptosis in human SK-BR-3 cells assessed as late apoptotic cells at 0.25 uM after 48 hrs by annexin v/PI-staining based flow cytometry (reference value: 6.2%); format: functional
# [27] = test system: SK-BR-3; assay: Induction of apoptosis in human SK-BR-3 cells assessed as nuclear condensation at 0.25 to 1 uM after 48 hrs by DAPI staining-based fluorescence analysis; format: functional, cell-based
# [28] = biological target: T2, Heat shock protein HSP90 (Homo sapiens); assay: Inhibition of Hsp90 in HUVEC assessed as repression of 1% hypoxia-induced […] mRNA expression at 0.1 uM measured over 8 hrs by RT-PCR analysis; format: cell-based
# [29] = biological target: T2, Heat shock protein HSP90 (Homo sapiens); assay: Inhibition of Hsp90 in HUVEC assessed as repression of 1% hypoxia-induced VEGF mRNA expression at 0.1 uM measured over 8 hrs by RT-PCR analysis; format: cell-based
# [30] = biological target: T2, Heat shock protein HSP90 (Homo sapiens); assay: Inhibition of Hsp90 in human SK-BR-3 cells assessed as downregulation of ERK1/2 after 24 hrs by Western blot analysis; format: cell-based
# [31] = test system: SK-BR-3; assay: Induction of apoptosis in human SK-BR-3 cells assessed as dead cells at 1 uM after 48 hrs by annexin v/PI-staining based flow cytometry (Rvb =1.3%); format: functional
# [32] = test system: SK-BR-3; assay: Induction of apoptosis in human SK-BR-3 cells assessed as late apoptotic cells after 48 hrs by annexin v/PI-staining based flow cytometry (reference value: 6.2%); format: functional, cell-based
# [33] = biological target: T2, Heat shock protein HSP90 (Homo sapiens); assay: Inhibition of Hsp90 in HUVEC assessed as repression of 1% hypoxia-induced Glut1 mRNA expression at 0.1 uM measured over 8 hrs by RT-PCR analysis; format: cell-based
# [34] = test system: SK-BR-3; assay: Induction of apoptosis in human SK-BR-3 cells assessed as early apoptotic cells at 0.25 uM after 48 hrs by annexin v/PI-staining based flow cytometry (reference value: 3.3%); format: functional
# [35] = test system: SK-BR-3; assay: Induction of cell morphological changes in human SK-BR-3 cells assessed as cell shrinkage at 0.25 to 1 uM after 48 hrs by DAPI staining-based fluorescence analysis; format: functional
# [36] = test system: SK-BR-3; assay: Induction of apoptosis in human SK-BR-3 cells assessed as early apoptotic cells at 1 uM after 48 hrs by annexin v/PI-staining based flow cytometry (reference value: 3.3%); format: functional
# [37] = biological target: T1, Heat shock protein HSP 90-alpha; assay: Binding affinity to human recombinant full length Hsp90alpha assessed as change in melting temperature at 1 mM by fluorescence assay
# [38] = test system: SK-BR-3; assay: Induction of apoptosis in human SK-BR-3 cells assessed as late apoptotic cells at 1 uM after 48 hrs by annexin v/PI-staining based flow cytometry (reference value: 6.2%); format: functional
# [39] = test system: SK-BR-3; assay: Induction of cell morphological changes in human SK-BR-3 cells assessed as cell distortion at 0.25 to 1 uM after 48 hrs by DAPI staining-based fluorescence analysis; format: functional
# [40] = test system: SK-BR-3; assay: Induction of apoptosis in human SK-BR-3 cells assessed as dead cells after 48 hrs by annexin v/PI-staining based flow cytometry (Rvb =1.3%); format: functional, cell-based
# [41] = test system: SK-BR-3; assay: Induction of apoptosis in human SK-BR-3 cells assessed as live cells at 0.5 uM after 48 hrs by annexin v/PI-staining based flow cytometry (reference value: 89.2%); format: functional
# [42] = biological target: T1, Heat shock protein HSP 90-alpha; assay: Binding affinity to human recombinant full length Hsp90alpha assessed as change in melting temperature at 125 uM by fluorescence assay
# [43] = biological target: T2, Heat shock protein HSP90 (Homo sapiens); assay: Inhibition of Hsp90 in human SK-BR-3 cells assessed as downregulation of Akt after 24 hrs by Western blot analysis; format: cell-based
# [44] = test system: SK-BR-3; assay: Induction of apoptosis in human SK-BR-3 cells assessed as early apoptotic cells at 0.5 uM after 48 hrs by annexin v/PI-staining based flow cytometry (reference value: 3.3%); format: functional
smiles,measurement,setting,value
CC(C)=CCC12OCC3CC(C=C4C(=O)c5c(O)cccc5OC431)C2=O (stereo unspecified),IC50,[1],14.3 µM
COc1cccc2c1C(=O)C1=CC3CC4COC(CC=C(C)C)(C3=O)C14O2 (stereo unspecified),IC50,[1],54.7 µM
C/C(=C\CC12OCC3CC(C1=O)C1OC14C(=O)c1c(O)cccc1OC324)CC=O (stereo unspecified),IC50,[1],36.6 µM
CC(C)=CCC12OC(C)(C)C3CC(C=C4C(=O)c5c(OCC(=O)O)cccc5OC431)C2=O (stereo unspecified),IC50,[1],> 100 µM
CC(C)=CCC12OC(C)(C)C3CC(C=C4C(=O)c5ccccc5OC431)C2=O (stereo unspecified),IC50,[1],23.9 µM
COc1cccc2c1C(=O)C1=CC3CC4C(C)(C)OC(CC=C(C)C)(C3=O)C14O2 (stereo unspecified),IC50,[1],76.8 µM
C=CCC12OCC3CC(C=C4C(=O)c5ccccc5OC431)C2=O (stereo unspecified),IC50,[1],28 µM
CC(C)=CCC12OC(C)(C)C3CC(C=C4C(=O)c5c(O)cc(O)cc5OC431)C2=O (stereo unspecified),IC50,[1],22.4 µM
CC(C)=CCC[C@]1(C)C=Cc2c(O)c3c(c(CC=C(C)C)c2O1)O[C@]12C(=C[C@@H]4C[C@H]1C(C)(C)O[C@@]2(C/C=C(/C)C(=O)O)C4=O)C3=O [GAMBOGIC ACID],IC50,[1],22 µM
same,IC50,[2],1.19 µM
same,IC50,[3],2.37 µM
same,IC50,[4],1.25 µM
same,IC50,[5],1.2 µM
same,IC50,[6],2.19 µM
same,IC50,[7],0.89 µM
CC(=O)Oc1cccc2c1C(=O)C1=CC3CC4COC(CC=C(C)C)(C3=O)C14O2 (stereo unspecified),IC50,[1],52.7 µM
C=CCC12OCC3CC(C=C4C(=O)c5c(O)cccc5OC431)C2=O (stereo unspecified),IC50,[1],8.52 µM
C/C(=C\CC12OCC3CC(C=C4C(=O)c5c(O)cccc5OC431)C2=O)CO (stereo unspecified),Activity,[8],Dose-dependent effect
same,Kd,[9],38 µM
same,Activity,[10],21.45%
same,ΔTm,[11],1.64 °C
same,IC50,[1],3.68 µM
same,IC50,[2],2.16 µM
same,Activity,[12],Dose-dependent effect
same,inhibition,[13],Active
same,Activity,[14],Dose-dependent effect
same,Activity,[15],78.15%
same,Activity,[16],Active
same,Activity,[17],50%
same,Activity,[18],Active
same,IC50,[3],3.02 µM
same,inhibition,[19],inactive
same,Activity,[20],2.35%
same,inhibition,[21],Dose-dependent effect
same,Activity,[22],Dose-dependent effect
same,ΔTm,[23],2.12 °C
same,Activity,[24],0.95%
same,Activity,[25],Dose-dependent effect
same,IC50,[4],2.89 µM
same,Activity,[26],13.4%
same,Activity,[27],Active
same,inhibition,[28],Active
same,inhibition,[29],Active
same,inhibition,[30],Dose-dependent effect
same,Activity,[31],5.7%
same,Activity,[32],Dose-dependent effect
same,IC50,[5],3.25 µM
same,inhibition,[33],Active
same,Activity,[34],7.5%
same,Activity,[35],Active
same,Activity,[36],8.6%
same,ΔTm,[37],4.7 °C
same,Activity,[38],35.7%
same,Activity,[39],Active
same,Activity,[40],Dose-dependent effect
same,Activity,[41],59.58%
same,IC50,[6],3.34 µM
same,IC50,[7],1.92 µM
same,ΔTm,[42],0.95 °C
same,inhibition,[43],Dose-dependent effect
same,Activity,[44],16.65%
